Results from article PMC10819430, “Binding Affinity and Mechanism of Six PFAS with Human Serum Albumin: Insights from Multi-Spectroscopy, DFT and Molecular Dynamics Approaches” (Toxics, 2024).
“And” between values parts separate entries of the source, which are not always exact repeats. Identical values can stand only once.

Columns and labels:
[1] = biological target: T1, HSA (Homo sapiens, UniProt P02768); test: 3D-EEM fluorescence spectra of HSA–PFAS; details: HSA 1 × 10^−6, PFAS 1.8 × 10^−5 mol·L^−1; for 3D-EEM Peak A Intensity F: HSA alone 673.66; for 3D-EEM Peak B Intensity F: HSA alone 996.906
T1 construct: HSA (≥96%) and six PFAS were all purchased from Aladdin Chemicals (Shanghai, China); purchased Aladdin Chemicals (Shanghai, China)
T1 sequence (P02768 25-609): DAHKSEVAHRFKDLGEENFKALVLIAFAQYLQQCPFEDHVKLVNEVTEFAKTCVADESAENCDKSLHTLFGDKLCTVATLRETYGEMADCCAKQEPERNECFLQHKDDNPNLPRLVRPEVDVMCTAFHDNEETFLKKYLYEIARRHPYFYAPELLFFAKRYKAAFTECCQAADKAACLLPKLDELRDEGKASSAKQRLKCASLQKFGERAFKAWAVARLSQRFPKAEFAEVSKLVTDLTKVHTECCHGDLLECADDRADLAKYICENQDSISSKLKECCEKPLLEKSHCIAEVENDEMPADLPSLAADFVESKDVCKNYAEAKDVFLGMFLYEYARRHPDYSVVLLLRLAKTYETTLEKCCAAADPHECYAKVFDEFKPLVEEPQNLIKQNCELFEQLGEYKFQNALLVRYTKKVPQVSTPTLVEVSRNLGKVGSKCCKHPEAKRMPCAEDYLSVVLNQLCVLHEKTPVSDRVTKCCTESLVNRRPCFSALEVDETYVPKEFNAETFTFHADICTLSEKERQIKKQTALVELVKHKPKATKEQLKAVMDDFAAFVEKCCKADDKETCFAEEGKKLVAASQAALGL
Experimental: The 3D-EEM spectra were recorded using specific scanning parameters at the scanning rate of 2400 nm·min^−1, an […] with 5 nm increments, and an emission of 280–550 nm with 2 nm increments. The concentrations of PFAS and HSA were set at 18 × 10^−6 mol·L^−1 and 1 × 10^−6 mol·L^−1, respectively.

[2] = biological target: T2, Human Serum Albumin (HSA) (Homo sapiens, UniProt P02768); test: Fluorescence quenching of HSA by PFAS (Stern–Volmer, double logarithmic and Van't Hoff analysis); type: binding; details: for quenching of HSA fluorescence intensity: PFAS 1.8 × 10^−5 mol·L^−1, HSA 1 × 10^−6 mol·L^−1, 298 K; for ΔH / ΔS: Van't Hoff, 298–310 K; for affinity for HSA: fluorescence quenching experiments; for main interaction force from thermodynamic analysis: signs of ΔH and ΔS
T2 construct: HSA (≥96%) and six PFAS were all purchased from Aladdin Chemicals (Shanghai, China); purchased Aladdin Chemicals (Shanghai, China)
T2 sequence (P02768 25-609): as above
Experimental: Fluorescence quenching experiments greatly benefit studies on the interactions between ligands and proteins. Initially, 3 mL of HSA stock solution was put into a 10 mm square quartz cuvette. Following that, PFAS stock solution was gradually added to achieve various final concentrations, namely 0, 3, 6, 9, 12, 15, 18 × 10^−6 mol·L^−1. By incrementally increasing the molar ratio of PFAS vs. HSA up to 18, their binding characteristics can be better investigated.
A thermostat (TR-01A, Bishui Corp, Beijing, China) was used to precisely control the solution temperature, which was set at 298, 304, and 310 K. This device includes a temperature controller and a metal heating cuvette module in conjunction with a fluorometer. This thermostat has a temperature range of 20–60 °C (293–333 K) and an accuracy of 0.1 °C Celsius. This step is critical for keeping the experimental conditions stable. Following that, the samples were fluorescence-scanned with a fluorometer (Cary Eclipse, Agilent, CA, USA). The excitation wavelength was set at 275 nm to efficiently stimulate tryptophan (Trp) and tyrosine (Tyr) residues. Additional test parameters include an emission of 275–500 nm, scanning rate of 1200 nm/min and PTV voltage of 700 v. Fluorescence quenching experiments were repeated three times, and the average values were taken for further calculation.
Fluorescence internal filtration (IFE) refers to the phenomenon where the fluorescence intensity decreases during fluorescence measurement due to the absorption of excitation or emission light by sample components (small molecules or proteins) in solution [19, 20]. This phenomenon is more obvious in the samples with a high concentration of adsorbent. A fluorescence correction formula was used in this study to correct the IFE effect on the data, as follows: Fcorr=Fobs×10^Aex+Aem/2 where Fcorr and Fobs are corrected and observed fluorescence emission intensities, respectively, Aex and Aem are UV-vis absorbances at the excitation and emission wavelengths.
The quenching constant can be calculated using the Stern–Volmer Equation (3). The results are shown in Table 2 and Figure 1: F0/F=1+Kqτ0=1+KsvQ where F0 and F refer to HSA fluorescence intensities without and with the quencher (PFAS solution); Kq is the biomacromolecule’s quenching rate constant; τ0 is the average fluorescence lifetime of the fluorescent molecule when the quencher PFAS is absent, usually taken as 10^−8 s; [Q] is the PFAS concentration; Ksv is the Stern–Volmer quenching constant; F0/F is the vertical axis; the Stern–Volmer curves of this system are 298, 304, and 310 K.
The double logarithmic formula can be used to calculate the binding constants and binding site numbers of HSA–PFAS complexes: logF0−F/F=logKb+nlogQ where F0 and F are parameters representing the initial fluorescence intensity and the fluorescence intensity after adding PFAS, respectively. The binding characteristics are represented by the binding constant, Kb, and the number of binding sites, n. The slope of the straight line is the number of binding sites, n, and the binding constant Kb is obtained from the exponent of the straight line’s intercept using the double logarithmic graph. Figure A2 and Table 2 show the calculation results.
The enthalpy change (∆H), entropy change (∆S), and free energy change (∆G) calculated from the Van’t Hoff equation [50] can be used to determine the type of interaction. lnKb=−ΔH/RT+ΔS/R ΔG=ΔH−TΔS=−RTlnKb where R represents the ideal gas constant (8.314 J·mol^−1·K^−1).

[3] = biological target: T1, HSA; test: Competitive probe experiment (warfarin, ibuprofen, lidocaine); type: binding
From the text: Competitive probe experiments are commonly used to identify specific binding sites in the structure of proteins. Three probe molecules known to bind to distinct binding sites on HSA were selected: warfarin (subdomain IIA), ibuprofen (subdomain IIIA), and lidocaine (subdomain IIB). These probe molecules would compete with PFAS for the same protein sites when binding with HSA. The potential binding sites can be inferred by monitoring and comparing changes in fluorescence intensity when probe molecules are present.

[4] = biological target: T1, HSA; test: Circular dichroism (CD) spectrum, secondary structure of HSA; details: HSA:PFAS 1:18, 298 K; for HSA secondary structure: β-Sheet: HSA alone 4.9; for HSA secondary structure: β-Turn: HSA alone 16.9; for HSA secondary structure: Random Coil: HSA alone 36.7; for HSA secondary structure: α-Helix: HSA alone 41.6
From the text: CD measurements (190–260 nm) were taken before and after the addition of PFAS to HSA using a J-815 CD spectrometer equipped with a PMT detector (JASCO, Tokyo, Japan). The protein concentration was set at 1 × 10^−6 mol/L, with a fixed HSA-to-PFAS concentration ratio of 1:18. The scanning rate was set to 100 nm/min with 0.5 nm increments, and the photometric mode of HT. Each sample was scanned three times. The blank buffer control was automatically subtracted during the scanning process. All tests were carried out at 298 K. The CONTIN analysis method from the DichroWeb was employed to determine the contents of the protein’s secondary structure.

O=C(O)C(F)(OC(F)(F)C(F)(OC(F)(F)C(F)(F)C(F)(F)F)C(F)(F)F)C(F)(F)F (stereo not drawn) [HFPO-TA, Perfluoro-2,5-dimethyl-3,6-dioxanonanoic Acid] was tested, and the “3D-EEM Peak A Position λex/λem” value [1] was 280/321, the “3D-EEM Peak B Position λex/λem” value [1] was 230/314 and the “3D-EEM Peak A Intensity F” value [1] was 499.16 a.u. The “3D-EEM Peak B Intensity F” value [1] was 861.38 a.u, the fluorescence quenching mechanism [2] was “mixed quenching” and the “Kq (quenching rate constant)” value ([2]; 298 K) was 1.78e+12 L/mol/s. The “quenching of HSA fluorescence intensity” value [2] was 25.1%, the “KSV (Stern–Volmer quenching constant)” value ([2]; T = 298 K) was 1.78 ± 0.09 × 10^4 L·mol^−1 and the “n (number of binding sites)” value ([2]; T = 298 K) was 1.49 ± 0.03. The ΔG ([2]; T = 298 K) was -8.956 kcal/mol, the “Kq (quenching rate constant)” value ([2]; T = 298 K, τ0 taken as 10^−8 s) was 1.78 ± 0.09 × 10^12 L·mol^−1·s^−1 and the “KSV (Stern–Volmer quenching constant)” value ([2]; T = 304 K) was 1.95 ± 0.13 × 10^4 L·mol^−1. The “n (number of binding sites)” value ([2]; T = 304 K) was 1.78 ± 0.07, the ΔG ([2]; T = 304 K) was -11.03 kcal/mol and the “Kq (quenching rate constant)” value ([2]; T = 304 K, τ0 taken as 10^−8 s) was 1.95 ± 0.13 × 10^12 L·mol^−1·s^−1. The “KSV (Stern–Volmer quenching constant)” value ([2]; T = 310 K) was 1.98 ± 0.08 × 10^4 L·mol^−1, the “n (number of binding sites)” value ([2]; T = 310 K) was 2.09 and 2.09 ± 0.08 and the ΔG ([2]; T = 310 K) was -13.28 kcal/mol. For the same compound, the “Kq (quenching rate constant)” value ([2]; T = 310 K, τ0 taken as 10^−8 s) was 1.98 ± 0.08 × 10^12 L·mol^−1·s^−1, the ΔH [2] was 98.506 ± 2.02 kcal/mol and the ΔS [2] was 1508.3 ± 30.8 J·mol^−1·K^−1. The “HSA fluorescence peak position after PFAS addition (blue shift from 337 nm)” value ([2]; as the concentration of PFAS increases) was 315 nm, the “affinity for HSA” value [2] was “high affinity” and the “main interaction force from thermodynamic analysis” value [2] was “hydrophobic interactions”. The “φ (rate of decrease in Kb)” value ([3]; ibuprofen probe) was 23.8%, the “φ (rate of decrease in Kb)” value ([3]; lidocaine probe) was 35.3% and the “φ (rate of decrease in Kb)” value ([3]; warfarin probe) was 99.6%. For the same compound, the “HSA secondary structure: β-Sheet” value [4] was 5.1%, the “HSA secondary structure: β-Turn” value [4] was 15.8% and the “HSA secondary structure: Random Coil” value [4] was 38.5%. The “HSA secondary structure: α-Helix” value [4] was 40.6%.
With O=C(O)C(F)(F)C(F)(F)C(F)(F)C(F)(F)C(F)(F)C(F)(F)F [PFHpA, Perfluoroheptanoic Acid] the “3D-EEM Peak A Position λex/λem” value [1] was 280/336, the “3D-EEM Peak B Position λex/λem” value [1] was 230/335 and the “3D-EEM Peak A Intensity F” value [1] was 656.89 a.u. The “3D-EEM Peak B Intensity F” value [1] was 997.01 a.u, the fluorescence quenching mechanism [2] was “static quenching” and the “quenching of HSA fluorescence intensity” value [2] was 12.1%. For the same compound, the “KSV (Stern–Volmer quenching constant)” value ([2]; T = 298 K) was 0.69 ± 0.05 × 10^4 L·mol^−1, the “n (number of binding sites)” value ([2]; T = 298 K) was 0.96 ± 0.04 and the ΔG ([2]; T = 298 K) was -4.986 kcal/mol. The “Kq (quenching rate constant)” value ([2]; T = 298 K, τ0 taken as 10^−8 s) was 0.69 ± 0.05 × 10^12 L·mol^−1·s^−1, the “KSV (Stern–Volmer quenching constant)” value ([2]; T = 304 K) was 0.53 ± 0.07 × 10^4 L·mol^−1 and the “n (number of binding sites)” value ([2]; T = 304 K) was 1.42 ± 0.06. For the same compound, the ΔG ([2]; T = 304 K) was -7.968 kcal/mol, the “Kq (quenching rate constant)” value ([2]; T = 304 K, τ0 taken as 10^−8 s) was 0.53 ± 0.07 × 10^12 L·mol^−1·s^−1 and the “KSV (Stern–Volmer quenching constant)” value ([2]; T = 310 K) was 0.32 ± 0.04 × 10^4 L·mol^−1. The “n (number of binding sites)” value ([2]; T = 310 K) was 1.50 ± 0.05, the ΔG ([2]; T = 310 K) was -8.332 kcal/mol and the “Kq (quenching rate constant)” value ([2]; T = 310 K, τ0 taken as 10^−8 s) was 0.32 ± 0.04 × 10^12 L·mol^−1·s^−1. For the same compound, the ΔH [2] was 77.672 ± 3.399 kcal/mol, the ΔS [2] was 1166.7 ± 42.7 J·mol^−1·K^−1 and the “affinity for HSA” value [2] was “low affinity”. The “main interaction force from thermodynamic analysis” value [2] was “hydrophobic interactions”, the “φ (rate of decrease in Kb)” value ([3]; ibuprofen probe) was 42.7% and the “φ (rate of decrease in Kb)” value ([3]; lidocaine probe) was 48.8%. The “φ (rate of decrease in Kb)” value ([3]; warfarin probe) was 98.9%, the “HSA secondary structure: β-Sheet” value [4] was 5.5% and the “HSA secondary structure: β-Turn” value [4] was 15.5%. For the same compound, the “HSA secondary structure: Random Coil” value [4] was 39.4% and the “HSA secondary structure: α-Helix” value [4] was 39.6%.
